Results reported in ChEMBL document CHEMBL1201862, “PubChem BioAssay data set” (2004).
Activity calls are given as the source filed them.

Legend:
[1] = toxicity toward HepG2 liver cells – cell-based, plate reader, cherry-pick, antagonist series, cytotoxicity control, dose response (AID 743416); type: functional
[2] = Luminescence-based counterscreen assay for KLF5 inhibitors: dose response cell-based high throughput screening assay to identify cytotoxic compounds using the IEC-6 intestinal epithelial cell line. [Related pubchem assays: 1700 (Primary screen.), 1834 (Confirmation screen.), 1858 (Summary AID.), 1905 (Counterscreen.)]; type: functional
[3] = general cell-killing toxicity readout – plate reader, dry powder samples, cytotoxicity control for PAX8 inhibitor project, dose response (AID 743021); type: functional, cell-based
[4] = CMV-driven luciferase expression suppression in HEK293 – cell-based, luminescence, dry powder, counter-screen for Pax8 inhibitor project, dose response (AID 743020); type: functional
[5] = viability loss in HEK293 cells – cell-based, plate reader, cherry-picked samples, cytotoxicity control, dose response (AID 743446); type: functional
[6] = microbe, parasite or virus in culture; type: functional; conditions: Mycobacterium tuberculosis
[7] = blockade of melanocortin 4 receptor signaling – cell-based, plate reader, cherry pick, counter-screen for LGR2 antagonist project, dose response (AID 743444); type: functional;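 further: transfected HEK 293 cells stimulated with alpha-MSH peptide; potency of inhibitors of the alpha-MSH evoked signal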
[8] = HEK-293T cell viability reduction – luminescence, B-cell screen hits, cytotoxicity control for BCR NF-kB inhibitor project, dose response (AID 489021); type: functional, cell-based;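 further: HEK-293T cells carrying an NF-kB luciferase reporter; cells exposed to compound for about 14 hours before viability readout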
[9] = molecular target: T1, Heat shock factor protein 1 (Mus musculus, UniProt P38532); test: decrease of HSF1-responsive luciferase luminescence – cell-based, NIH3T3, dose retest, confirmation (AID 2382); type: functional;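 further: NIH3T3 fibroblasts with HSF1-driven luciferase reporter stressed by proteasome inhibitor MG132; luminescence from HSF1-driven luciferase expression after 8 hours of MG132 stress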
T1 sequence (P38532 whole entry): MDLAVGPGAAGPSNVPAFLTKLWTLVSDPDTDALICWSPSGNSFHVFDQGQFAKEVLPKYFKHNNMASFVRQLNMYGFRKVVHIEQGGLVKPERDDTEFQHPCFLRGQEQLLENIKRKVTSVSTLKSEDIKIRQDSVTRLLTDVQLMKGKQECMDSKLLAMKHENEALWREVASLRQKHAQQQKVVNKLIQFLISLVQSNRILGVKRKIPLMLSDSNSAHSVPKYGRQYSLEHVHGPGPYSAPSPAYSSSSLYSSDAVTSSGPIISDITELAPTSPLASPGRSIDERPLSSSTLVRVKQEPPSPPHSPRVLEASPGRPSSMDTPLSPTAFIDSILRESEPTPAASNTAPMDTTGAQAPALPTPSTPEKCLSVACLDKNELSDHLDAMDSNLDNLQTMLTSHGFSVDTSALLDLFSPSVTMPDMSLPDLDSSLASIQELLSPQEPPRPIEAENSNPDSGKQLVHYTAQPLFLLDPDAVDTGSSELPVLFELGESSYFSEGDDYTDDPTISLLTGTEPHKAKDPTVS

[10] = blockers of bursicon-stimulated LGR2 cAMP reporter – cell-based, HEK293, CRE-luciferase reporter, cherry pick, set 2, dose response (AID 743343); type: functional;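 further: transfected cells were stimulated with diluted bursicon conditioned medium after compound addition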
[11] = A549 cell cytotoxicity, dose response, cytotoxicity control, plate reader, cherry-pick, antagonist series (AID 743412); type: functional, cell-based
Paired box protein Pax-8 = Paired box protein Pax-8 (Homo sapiens, UniProt Q06710); test: PAX8 transcriptional activity inhibition in RMG-I – RMG-I cells, luciferase, cherry-pick, dose response (AID 687027); type: functional, cell-based;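 further: luciferase reporter driven by Pax8 target thyroperoxidase promoter measured by SteadyGlo luminescence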
HEK293 = test: EBV LMP1 TES2 canonical NF-kB signalling blockers – cell-based, HEK293, luciferase, cherry-pick, dose response (AID 588343); type: functional; conditions: Homo sapiens
[12] = molecular target: T2, Rac GTPase-activating protein 1 (Homo sapiens, UniProt Q9H0H5); test: blockers of MgcRacGAP-driven Rac1 GTP hydrolysis – biochemical, ADP Hunter fluorescence, primary and confirmatory, confirmation (AID 624330); type: functional
T2 sequence (Q9H0H5 whole entry): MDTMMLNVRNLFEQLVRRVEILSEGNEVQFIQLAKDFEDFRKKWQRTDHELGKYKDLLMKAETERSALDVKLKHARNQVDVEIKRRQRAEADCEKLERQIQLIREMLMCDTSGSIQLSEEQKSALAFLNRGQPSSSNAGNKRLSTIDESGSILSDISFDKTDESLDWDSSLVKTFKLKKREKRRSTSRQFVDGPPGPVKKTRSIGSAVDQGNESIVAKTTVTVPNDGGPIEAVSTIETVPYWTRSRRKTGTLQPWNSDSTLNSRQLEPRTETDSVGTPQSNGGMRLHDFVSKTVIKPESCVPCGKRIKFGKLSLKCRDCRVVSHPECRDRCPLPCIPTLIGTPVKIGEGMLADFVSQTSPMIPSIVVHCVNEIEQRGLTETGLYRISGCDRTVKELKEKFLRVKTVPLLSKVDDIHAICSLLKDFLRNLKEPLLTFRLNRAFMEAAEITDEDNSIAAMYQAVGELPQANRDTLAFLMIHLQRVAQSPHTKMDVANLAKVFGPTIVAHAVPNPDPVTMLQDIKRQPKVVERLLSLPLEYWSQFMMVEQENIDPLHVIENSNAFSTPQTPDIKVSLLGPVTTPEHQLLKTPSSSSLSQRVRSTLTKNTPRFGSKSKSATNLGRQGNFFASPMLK

[13] = mitochondrial function rescue without frataxin homolog – Friedreich's ataxia, plus single-dose screen, dose response (AID 1465); type: functional;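 further: yeast depleted of Yfh1p frataxin homolog grown on glycerol needing respiration; WST-1 tetrazolium dye reduction as measure of cellular dehydrogenase metabolic activity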
[14] = molecular target: Induced myeloid leukemia cell differentiation protein Mcl-1 (Homo sapiens, UniProt Q07820); type: functional
[15] = HPDE-C7 pancreatic duct cell viability loss – fluorescence, HTS (AID 430); type: functional, cell-based; conditions: Homo sapiens
[16] = molecular target: T3, Ubiquitin-conjugating enzyme E2 N (Homo sapiens, UniProt P61088); type: functional;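 further: Dose-response confirmation in a TR-FRET assay detecting UBC13-driven polyubiquitin chain formation, inhibition measured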
T3 sequence (P61088 whole entry): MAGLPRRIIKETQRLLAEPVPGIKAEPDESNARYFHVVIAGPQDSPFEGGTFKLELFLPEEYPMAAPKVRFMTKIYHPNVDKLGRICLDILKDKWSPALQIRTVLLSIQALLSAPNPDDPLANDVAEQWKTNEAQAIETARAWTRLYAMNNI

[17] = molecular target: T4, Neuropeptide Y receptor type 2 (Homo sapiens, UniProt P49146); type: functional, cell-based;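 further: HEK293 cells expressing the receptor and a CNG channel; stimulus was NPY near EC95 followed by isoproterenol to raise cAMP; antagonist potency measured as restoring cAMP signal that NPY suppresses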
T4 sequence (P49146 whole entry): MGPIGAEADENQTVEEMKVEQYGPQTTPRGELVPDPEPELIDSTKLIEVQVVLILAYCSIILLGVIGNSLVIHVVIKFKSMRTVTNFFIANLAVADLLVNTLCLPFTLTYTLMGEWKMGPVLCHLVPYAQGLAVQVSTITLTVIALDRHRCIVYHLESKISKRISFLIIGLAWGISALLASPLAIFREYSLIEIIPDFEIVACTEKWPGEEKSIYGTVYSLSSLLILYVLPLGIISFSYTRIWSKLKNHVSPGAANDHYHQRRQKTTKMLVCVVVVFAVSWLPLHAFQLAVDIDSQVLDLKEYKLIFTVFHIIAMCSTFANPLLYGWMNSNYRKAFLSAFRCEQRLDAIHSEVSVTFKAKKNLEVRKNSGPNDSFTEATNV

[18] = glucagon-like peptide-1 release potency in STC-1, concentration-response, half-maximal inhibitory concentration in the STC-1 line (AID 1117345); type: functional, cell-based
[19] = molecular target: Heat shock protein HSP 90-alpha (Homo sapiens, UniProt P07900); type: functional, organism-based
[20] = molecular target: T5, Aryl hydrocarbon receptor (Homo sapiens, UniProt P35869); conditions: Potency;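 further: confirmatory quantitative high-throughput screen measuring activation of the AhR signaling pathway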
T5 sequence (P35869 whole entry): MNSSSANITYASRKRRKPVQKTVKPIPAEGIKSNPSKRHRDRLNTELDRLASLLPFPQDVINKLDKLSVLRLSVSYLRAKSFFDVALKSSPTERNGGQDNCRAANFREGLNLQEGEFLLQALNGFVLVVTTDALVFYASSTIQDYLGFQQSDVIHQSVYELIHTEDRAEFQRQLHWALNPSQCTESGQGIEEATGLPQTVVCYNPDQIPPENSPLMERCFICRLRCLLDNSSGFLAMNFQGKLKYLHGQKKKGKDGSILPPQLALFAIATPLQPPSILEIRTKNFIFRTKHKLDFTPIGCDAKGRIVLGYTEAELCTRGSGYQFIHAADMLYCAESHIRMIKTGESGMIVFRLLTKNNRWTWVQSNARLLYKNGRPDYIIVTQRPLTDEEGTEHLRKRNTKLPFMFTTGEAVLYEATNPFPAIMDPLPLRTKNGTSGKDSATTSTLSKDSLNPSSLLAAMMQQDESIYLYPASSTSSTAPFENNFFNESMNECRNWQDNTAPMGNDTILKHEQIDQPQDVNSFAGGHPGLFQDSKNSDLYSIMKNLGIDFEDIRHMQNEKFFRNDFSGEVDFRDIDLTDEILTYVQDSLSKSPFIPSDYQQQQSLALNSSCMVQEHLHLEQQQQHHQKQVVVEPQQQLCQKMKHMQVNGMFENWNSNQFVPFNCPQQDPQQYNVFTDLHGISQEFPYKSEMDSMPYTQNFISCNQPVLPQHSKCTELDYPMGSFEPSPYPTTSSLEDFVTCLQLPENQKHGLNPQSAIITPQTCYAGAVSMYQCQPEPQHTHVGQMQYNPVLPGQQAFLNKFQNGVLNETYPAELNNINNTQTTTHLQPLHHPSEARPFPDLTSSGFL

[21] = viability loss of HPDE-C7K cells – cell-based, fluorescence, HTS, primary screen (AID 431); type: functional; conditions: Homo sapiens
[22] = Potency on glucagon-like peptide 1 release, dose-response in NCI-H716 cell line, half maximal inhibitory concentration (AID 1117344); type: functional, cell-based

Paired box protein Pax-8, sequence (Q06710 whole entry): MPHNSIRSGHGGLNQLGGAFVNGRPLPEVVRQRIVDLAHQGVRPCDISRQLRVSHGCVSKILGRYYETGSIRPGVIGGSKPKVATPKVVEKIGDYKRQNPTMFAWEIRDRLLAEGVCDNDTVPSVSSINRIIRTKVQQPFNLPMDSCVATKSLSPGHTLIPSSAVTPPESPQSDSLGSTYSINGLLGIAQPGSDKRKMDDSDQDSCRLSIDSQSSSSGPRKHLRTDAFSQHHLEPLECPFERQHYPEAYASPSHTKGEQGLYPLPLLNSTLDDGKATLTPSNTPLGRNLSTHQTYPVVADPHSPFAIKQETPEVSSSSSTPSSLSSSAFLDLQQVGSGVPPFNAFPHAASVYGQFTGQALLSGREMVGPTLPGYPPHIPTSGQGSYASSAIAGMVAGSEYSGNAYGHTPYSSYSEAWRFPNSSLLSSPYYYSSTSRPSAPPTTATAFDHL
Induced myeloid leukemia cell differentiation protein Mcl-1, sequence (Q07820 whole entry): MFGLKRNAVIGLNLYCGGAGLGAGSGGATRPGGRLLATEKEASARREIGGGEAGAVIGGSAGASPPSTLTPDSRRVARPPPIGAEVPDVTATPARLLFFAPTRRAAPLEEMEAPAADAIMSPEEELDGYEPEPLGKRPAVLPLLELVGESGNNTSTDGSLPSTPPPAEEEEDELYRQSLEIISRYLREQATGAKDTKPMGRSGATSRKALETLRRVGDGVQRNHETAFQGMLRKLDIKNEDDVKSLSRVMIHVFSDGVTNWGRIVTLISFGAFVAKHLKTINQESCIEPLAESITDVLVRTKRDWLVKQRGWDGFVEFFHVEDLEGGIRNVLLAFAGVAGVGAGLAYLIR

COc1ccc(OCc2cccc(C(=O)Nn3cc([N+](=O)[O-])cn3)c2)cc1
> 39.8 µM (not active): IC50 [2]
active: AC50 [1] 34.1 µM | AC50 [3] 10.1 µM | AC50 [4] 21 µM | CC50 [6] > 40 µM | AC50 [7] 0.462 µM | EC50 [9] 4.92 µM | AC50 [10] 0.407 µM | AC50 (Paired box protein Pax-8) 1.13 µM | AC50 (HEK293) 0.709 µM
inactive: AC50 [5] > 52 µM | IC50 [8] > 80 µM | AC50 [11] > 52 µM

CC1=NN(C(N)=S)C(=O)C1N=Nc1ccc(O)cc1 (centres undefined)
active: IC50 [12] 16.6 µM | EC50 [13] > 100 µM | IC50 [14] 9.66 µM

Clc1ccc(COC(Cn2ccnc2)c2ccc(Cl)cc2Cl)cc1 (centres undefined) [ECONAZOLE NITRATE]
inconclusive: AC50 [20] 56.2 µM
active: EC50 [15] 15.9 µM | IC50 [17] 8.02 µM | IC50 [18] 4.29 µM | AC50 [19] 0.267 µM | EC50 [21] 15.4 µM
inactive: IC50 [16] > 20 µM | IC50 [22] 25.6 µM
